From ChEMBL document CHEMBL3217526, “Bioguided discovery and pharmacophore modeling of the mycotoxic indole diterpene alkaloids penitrems as breast cancer proliferation, migration, and invasion inhibitors” (Medchemcomm, 2013)
Activity calls are given as the source filed them. The calls are words filed in the database; no cut-off is given here.

Tests used:
MCF7 [1] = assay: Cytotoxicity against human MCF7 cells assessed as growth inhibition at 10 uM; type: functional; conditions: read-out: GI
MDA-MB-468 = assay: Cytotoxicity against human MDA-MB-468 cells assessed as growth inhibition at 10 uM; type: functional; conditions: read-out: GI
T47D = assay: Cytotoxicity against human T47D cells assessed as growth inhibition at 10 uM; type: functional; conditions: read-out: GI
BT-549 = assay: Cytotoxicity against human BT549 cells assessed as growth inhibition at 10 uM; type: functional; conditions: read-out: GI
[2] = Cytotoxicity against human Hs578T cells assessed as growth inhibition at 10 uM; type: functional; conditions: Hs-578T, read-out: GI
MDA-MB-231 [3] = assay: Cytotoxicity against human MDA-MB-231 cells assessed as growth inhibition at 10 uM; type: functional; conditions: read-out: GI
DU-145 = assay: Cytotoxicity against human DU145 cells assessed as growth inhibition at 10 uM; type: functional; conditions: read-out: GI
PC-3 = assay: Cytotoxicity against human PC3 cells assessed as growth inhibition at 10 uM; type: functional; conditions: read-out: GI
[4] = Cytotoxicity against human UO31 cells assessed as growth inhibition at 10 uM; type: functional; conditions: UO-31, read-out: GI
TK-10 = assay: Cytotoxicity against human TK10 cells assessed as growth inhibition at 10 uM; type: functional; conditions: read-out: GI
SN12C = assay: Cytotoxicity against human SN12C cells assessed as growth inhibition at 10 uM; type: functional; conditions: read-out: GI
RXF 393 = assay: Cytotoxicity against human RXF393 cells assessed as growth inhibition at 10 uM; type: functional; conditions: read-out: GI
ACHN = assay: Cytotoxicity against human ACHN cells assessed as growth inhibition at 10 uM; type: functional; conditions: read-out: GI
786-0 = assay: Cytotoxicity against human 786-0 cells assessed as growth inhibition at 10 uM; type: functional; conditions: read-out: GI
SK-OV-3 = assay: Cytotoxicity against human SKOV3 cells assessed as growth inhibition at 10 uM; type: functional; conditions: read-out: GI
[5] = Cytotoxicity against human NCI-ADR-RES cells assessed as growth inhibition at 10 uM; type: functional; conditions: read-out: GI
[6] = Cytotoxicity against human OVCAR8 cells assessed as growth inhibition at 10 uM; type: functional; conditions: OVCAR-8, read-out: GI
[7] = Cytotoxicity against human OVCAR5 cells assessed as growth inhibition at 10 uM; type: functional; conditions: OVCAR-5, read-out: GI
[8] = Cytotoxicity against human OVCAR4 cells assessed as growth inhibition at 10 uM; type: functional; conditions: OVCAR-4, read-out: GI
[9] = Cytotoxicity against human OVCAR3 cells assessed as growth inhibition at 10 uM; type: functional; conditions: OVCAR-3, read-out: GI
IGROV-1 = assay: Cytotoxicity against human IGROV1 cells assessed as growth inhibition at 10 uM; type: functional; conditions: read-out: GI
[10] = Cytotoxicity against human UACC62 cells assessed as growth inhibition at 10 uM; type: functional; conditions: UACC-62, read-out: GI
[11] = Cytotoxicity against human UACC257 cells assessed as growth inhibition at 10 uM; type: functional; conditions: UACC-257, read-out: GI
SK-MEL-5 = assay: Cytotoxicity against human SK-MEL-5 cells assessed as growth inhibition at 10 uM; type: functional; conditions: read-out: GI
SK-MEL-2 = assay: Cytotoxicity against human SK-MEL-2 cells assessed as growth inhibition at 10 uM; type: functional; conditions: read-out: GI
SK-MEL-28 = assay: Cytotoxicity against human SK-MEL-28 cells assessed as growth inhibition at 10 uM; type: functional; conditions: read-out: GI
MDA-MB-435 = assay: Cytotoxicity against human MDA-MB-435 cells assessed as growth inhibition at 10 uM; type: functional; conditions: read-out: GI
Malme-3M = assay: Cytotoxicity against human MALME-3M cells assessed as growth inhibition at 10 uM; type: functional; conditions: read-out: GI
M14 = assay: Cytotoxicity against human M14 cells assessed as growth inhibition at 10 uM; type: functional; conditions: read-out: GI
LOX IMVI = assay: Cytotoxicity against human LOXIMVI cells assessed as growth inhibition at 10 uM; type: functional; conditions: read-out: GI
U-251 = assay: Cytotoxicity against human U251 cells assessed as growth inhibition at 10 uM; type: functional; conditions: read-out: GI
SNB-75 = assay: Cytotoxicity against human SNB75 cells assessed as growth inhibition at 10 uM; type: functional; conditions: read-out: GI
SNB-19 = assay: Cytotoxicity against human SNB19 cells assessed as growth inhibition at 10 uM; type: functional; conditions: read-out: GI
SF-539 = assay: Cytotoxicity against human SF539 cells assessed as growth inhibition at 10 uM; type: functional; conditions: read-out: GI
SF-268 = assay: Cytotoxicity against human SF268 cells assessed as growth inhibition at 10 uM; type: functional; conditions: read-out: GI
SW-620 = assay: Cytotoxicity against human SW620 cells assessed as growth inhibition at 10 uM; type: functional; conditions: read-out: GI
KM12 = assay: Cytotoxicity against human KM12 cells assessed as growth inhibition at 10 uM; type: functional; conditions: read-out: GI
HT-29 = assay: Cytotoxicity against human HT-29 cells assessed as growth inhibition at 10 uM; type: functional; conditions: read-out: GI
[12] = Cytotoxicity against human HCT15 cells assessed as growth inhibition at 10 uM; type: functional; conditions: HCT-15, read-out: GI
HCT-116 = assay: Cytotoxicity against human HCT116 cells assessed as growth inhibition at 10 uM; type: functional; conditions: read-out: GI
HCC 2998 = assay: Cytotoxicity against human HCC2998 cells assessed as growth inhibition at 10 uM; type: functional; conditions: read-out: GI
COLO 205 = assay: Cytotoxicity against human COLO205 cells assessed as growth inhibition at 10 uM; type: functional; conditions: read-out: GI
NCI-H522 = assay: Cytotoxicity against human NCI-H522 cells assessed as growth inhibition at 10 uM; type: functional; conditions: read-out: GI
NCI-H460 = assay: Cytotoxicity against human NCI-H460 cells assessed as growth inhibition at 10 uM; type: functional; conditions: read-out: GI
NCI-H322M = assay: Cytotoxicity against human NCI-H322M cells assessed as growth inhibition at 10 uM; type: functional; conditions: read-out: GI
NCI-H23 = assay: Cytotoxicity against human NCI-H23 cells assessed as growth inhibition at 10 uM; type: functional; conditions: read-out: GI
NCI-H226 = assay: Cytotoxicity against human NCI-H226 cells assessed as growth inhibition at 10 uM; type: functional; conditions: read-out: GI
HOP-62 = assay: Cytotoxicity against human HOP62 cells assessed as growth inhibition at 10 uM; type: functional; conditions: read-out: GI
CAKI-1 = assay: Cytotoxicity against human CAKI-1 cells assessed as growth inhibition at 10 uM; type: functional; conditions: read-out: GI
A549 = assay: Cytotoxicity against human A549 cells assessed as growth inhibition at 10 uM; type: functional; conditions: read-out: GI
[13] = Cytotoxicity against human EKVX cells assessed as growth inhibition at 10 uM; type: functional; conditions: read-out: GI
SR = assay: Cytotoxicity against human SR cells assessed as growth inhibition at 10 uM; type: functional; conditions: read-out: GI
MOLT-4 = assay: Cytotoxicity against human MOLT4 cells assessed as growth inhibition at 10 uM; type: functional; conditions: read-out: GI
RPMI-8226 = assay: Cytotoxicity against human RPMI8226 cells assessed as growth inhibition at 10 uM; type: functional; conditions: read-out: GI
K562 = assay: Cytotoxicity against human K562 cells assessed as growth inhibition at 10 uM; type: functional; conditions: read-out: GI
CCRF-CEM = assay: Cytotoxicity against human CCRF-CEM cells assessed as growth inhibition at 10 uM; type: functional; conditions: read-out: GI
HL-60(TB) = assay: Cytotoxicity against human HL-60(TB) cells assessed as growth inhibition at 10 uM; type: functional; conditions: read-out: GI
Caenorhabditis elegans [14] = assay: Toxicity in L1 stage Caenorhabditis elegans N2 assessed as viability and reproduction at 50 uM; type: organism-based; conditions: in vivo
Caenorhabditis elegans [15] = assay: Toxicity in L1 stage Caenorhabditis elegans N2 assessed as viability and reproduction at 10 uM; type: organism-based; conditions: in vivo
MDA-MB-231 [16] = assay: Antiinvasive activity against human MDA-MB-231 cells assessed as inhibition of cell invasion at 15 uM after 24 hrs by BME Cell invasion assay kit; type: functional
MDA-MB-231 [17] = assay: Antimigratory activity in human MDA-MB-231 cells after 24 hrs by wound healing assay; type: functional, cell-based; conditions: MDA-MB-231, 24 h
MDA-MB-231 [18] = assay: Antiproliferative activity against human MDA-MB-231 cells after 72 hrs by MTT assay; type: functional, cell-based; conditions: MDA-MB-231, 72 h
MCF7 [19] = assay: Antiproliferative activity against human MCF7 cells after 72 hrs by MTT assay; type: functional, cell-based; conditions: MCF7, 72 h

C=C(C)[C@H]1O[C@H]2CC[C@@]3(C)[C@@](O)(CC[C@H]4[C@@H]5OC(C)(C)[C@H]6C[C@@H]7C(=C)Cc8ccc9[nH]c(c5c9c8[C@@]76O)[C@@]43C)[C@]23O[C@@H]3[C@H]1O
inhibition of growth at 10 µM (MCF7 [1]): 100% | inhibition of growth at 10 µM (MDA-MB-468): 96.6% | inhibition of growth at 10 µM (T47D): 94.8% | inhibition of growth at 10 µM (BT-549): 101% | inhibition of growth at 10 µM [2]: 92.2% | inhibition of growth at 10 µM (MDA-MB-231 [3]): 101% | inhibition of growth at 10 µM (DU-145): 100% | inhibition of growth at 10 µM (PC-3): 82.9% | inhibition of growth at 10 µM [4]: 72.5% | inhibition of growth at 10 µM (TK-10): 107% | inhibition of growth at 10 µM (SN12C): 99.2% | inhibition of growth at 10 µM (RXF 393): 95% | inhibition of growth at 10 µM (ACHN): 101% | inhibition of growth at 10 µM (786-0): 96.2% | inhibition of growth at 10 µM (SK-OV-3): 103% | inhibition of growth at 10 µM [5]: 109% | inhibition of growth at 10 µM [6]: 96.9% | inhibition of growth at 10 µM [7]: 115% | inhibition of growth at 10 µM [8]: 109% | inhibition of growth at 10 µM [9]: 111% | inhibition of growth at 10 µM (IGROV-1): 89.7% | inhibition of growth at 10 µM [10]: 101% | inhibition of growth at 10 µM [11]: 97.1% | inhibition of growth at 10 µM (SK-MEL-5): 104% | inhibition of growth at 10 µM (SK-MEL-2): 96.4% | inhibition of growth at 10 µM (SK-MEL-28): 110% | inhibition of growth at 10 µM (MDA-MB-435): 106% | inhibition of growth at 10 µM (Malme-3M): 98.5% | inhibition of growth at 10 µM (M14): 100% | inhibition of growth at 10 µM (LOX IMVI): 105% | inhibition of growth at 10 µM (U-251): 99% | inhibition of growth at 10 µM (SNB-75): 84.4% | inhibition of growth at 10 µM (SNB-19): 101% | inhibition of growth at 10 µM (SF-539): 90.7% | inhibition of growth at 10 µM (SF-268): 88.9% | inhibition of growth at 10 µM (SW-620): 106% | inhibition of growth at 10 µM (KM12): 110% | inhibition of growth at 10 µM (HT-29): 90.6% | inhibition of growth at 10 µM [12]: 98.9% | inhibition of growth at 10 µM (HCT-116): 92.4% | inhibition of growth at 10 µM (HCC 2998): 104% | inhibition of growth at 10 µM (COLO 205): 106% | inhibition of growth at 10 µM (NCI-H522): 86% | inhibition of growth at 10 µM (NCI-H460): 100% | inhibition of growth at 10 µM (NCI-H322M): 99.4% | inhibition of growth at 10 µM (NCI-H23): 117% | inhibition of growth at 10 µM (NCI-H226): 98.2% | inhibition of growth at 10 µM (HOP-62): 99.2% | inhibition of growth at 10 µM (CAKI-1): 107% | inhibition of growth at 10 µM (A549): 92.6% | inhibition of growth at 10 µM [13]: 104% | inhibition of growth at 10 µM (SR): 91.9% | inhibition of growth at 10 µM (MOLT-4): 78% | inhibition of growth at 10 µM (RPMI-8226): 72.5% | inhibition of growth at 10 µM (K562): 76.9% | inhibition of growth at 10 µM (CCRF-CEM): 68% | inhibition of growth at 10 µM (HL-60(TB)): 101% | Activity (Caenorhabditis elegans [14]): Non-toxic | Activity (Caenorhabditis elegans [15]): Non-toxic | inhibition (MDA-MB-231 [16]): inactive | IC50 (MDA-MB-231 [17]): 20.3 µM | IC50 (MDA-MB-231 [18]): 25.4 µM | IC50 (MCF7 [19]): 17.5 µM
